The source of these data is patent US11896593B2, “Sulfamate derivative compounds for use in treating or alleviating a psychiatric disorder” (Bio-Pharm Solutions Co., Ltd., priority 2020, dated 2024).

What all share (assay type): in vivo
Test [1] concerns ICR male mice. In words: Open field test. The note with it: 60 minutes before testing. On the procedure:
This test is based on anxiety behaviors of rodents in the central area of an open field. When a mouse stayed in the central area for a longer period of time, it was deemed that there were more anti-stress, anti-depressant and anti-anxiety effects. ICR male mice (30 g to 35 g) were purchased from Orient Bio Korea Co. (Korea) and allowed to acclimatize for 1 week before being tested in a controlled animal facility (temperature 22±2° C., humidity 55±5%). When treatment began, the weight of the animals was 35±5% g. The test compound for oral administration was dissolved in 30% PEG400 and administered at a dose per body weight of 10 mL/kg 60 minutes before testing. The test compound for intraperitoneal administration was dissolved in 20% Tween80 and administered at a dose per body weight of 10 mL/kg 60 minutes before testing. The control group was provided with a corresponding vehicle. The open field was measured and analyzed by OPTO-VARIMEX instrument (Columbus Instruments, USA). The mouse was placed in the center of the open field, and its behavior was measured for 10 minutes. The open field was divided into 16 equal parts, and the middle area was established as the central area. Locomotor activity was measured using a spontaneous momentum (distance moved in cm), and measurement of anxiety behavior was obtained using the time spent in the central area as an index. In the open field experiment, when the time during which the mouse stayed in the central area was longer, it was evaluated that the symptoms of anxiety were alleviated, and when the time was shorter, the mouse was evaluated to have symptoms of anxiety (Reference; Prut L, Belzung C. 2003. The open field as a paradigm to measure the effects of drugs on anxiety-like behaviors: a review. Eur J Pharmacol. February 28; 463(1-3):3-33.).

Test [2] relates to ICR male mice. Put plainly: Light dark choice test. The note with it: mouse, 60 minutes before testing. The protocol:
The light-dark choice test is a model for anxiety-like behavior. This test is based on innate aversion of rodents to brightly lit areas and their voluntary exploration behaviors for light stress factors, that is, new environments and light. ICR male mice (30 g to 35 g) were purchased from Orient Bio Korea Co. (Korea) and allowed to acclimatize for 1 week before being tested in a controlled animal facility (temperature 22±2° C., humidity 55±5%). When treatment began, the weight of the animals was 35±5% g. The test compound for oral administration was dissolved in 30% PEG400 and administered at a dose per body weight of 10 mL/kg 60 minutes before testing. The test compound for intraperitoneal administration was dissolved in 20% Tween80 and administered at a dose per body weight of 10 mL/kg 60 minutes before testing. The control group was provided with a corresponding vehicle. An acryl box (45 cm×27 cm×27 cm) was composed of 2 chambers (white color: ⅔ of the box, black color: ⅓ of the box) connected by an opening (7.5 cm×7.5 cm) located at the bottom surface of the center of a partition wall. Each mouse was placed in the white part of the box and allowed to roam freely for a 5-minute session. At the end of the session, mice were returned to their habitat cage, and the experimental box was cleanly wiped with a 70% alcohol solution. All experiments were videotaped. After testing, all video recordings were analyzed. The obtained results are shown in Table 5 below (Reference; Bourin, M., Hascoet, M. 2003. The mouse light/dark box test. European Journal of Pharmacology, 463, 55-65. Bouwknecht, J A., Paylor, R. 2002. Behavioral and physiological mouse assays for anxiety: a survey in nine mouse strains. Behavioural Brain Research, 136, 489-501.).

The test system of test [3] is rats that gave birth, chronic administration of corticosterone. In words: PPD (chronic CORT induced PPD model), forced swim test. The conditions noted are these: postpartum depression rat, 30 mg/kg, intraperitoneally 15 minutes before testing. The protocol:
In order to confirm the effect on postpartum depression in rats, the forced swim test was conducted after chronic administration of corticosterone, a depression-causing substance, to rats that gave birth. The forced swim test causes an immobile state by forcing an animal to swim in a confined space. It reflects a state of despair giving up evading such a circumstance. Rats on the 15th day of pregnancy were purchased from Koatech (Korea) and allowed to acclimatize for 1 week before being tested in a controlled animal facility (temperature 22±2° C., humidity 55±5%). […] In the recorded videos, the time during which the animal placed its head on the water and remained still without movement was measured based on the remaining 4 minutes excluding the first 2 minutes. It was evaluated that the lower the value of the immobile posture time, the greater the anti-depressant action (Reference; S. Brummelte et al. Chronic corticosterone during pregnancy and affects maternal care, cell proliferation and depressive-like behavior in the dam. Hormones and Behavior 58 (2010) 769˜779, Porsolt R D, Le Pichon M, Jalfre M. 1997. Depression: a new animal model sensitive to anti-depressant treatments. Nature. April 21; 266(5604):730˜2.).
The result was shown as the standard error of measurement (SEM) of mean value±mean value. Behavioral data were analyzed by one-way ANOVA. […]

As for `CC1(C)O[C@@H](COS(N)(=O)=O)[C@H](c2ccccc2Cl)O1` [Example 2, ((4S,5S)-5-(2-chlorophenyl)-2,2-dimethyl-1,3-dioxolan-4-yl)methyl sulfamate], the “Spontaneous momentum(cm)/10 minutes, Treatment” value in test [1] (intraperitoneal, 10 mg/kg) is on record as 5038.2 ± 455.9 cm/10 minutes; in test [1] (intraperitoneal, 30 mg/kg) it was 4249.4 ± 402.4 cm/10 minutes; in test [1] (oral, 10 mg/kg), 4997.3 ± 491.6 cm/10 minutes; in test [1] (oral, 30 mg/kg), 5033.5 ± 233.8 cm/10 minutes. In addition, the “Time of staying in central area (sec.)/10 minutes, Treatment” value in test [1] (intraperitoneal, 10 mg/kg) is recorded as 31.6 ± 2.7 sec./10 minutes; in test [1] (intraperitoneal, 30 mg/kg) it was 35.6 ± 3.1 sec./10 minutes; in test [1] (oral, 10 mg/kg), 36.6 ± 4.6 sec./10 minutes; in test [1] (oral, 30 mg/kg), 44.7 ± 3.5 sec./10 minutes. Besides, the “White box duration time (sec.)/5 minutes, Treatment” value in test [2] (intraperitoneal, 10 mg/kg) is given as 189.0 ± 10.8 sec./5 minutes; in test [2] (intraperitoneal, 30 mg/kg), 208.1 ± 13.2 sec./5 minutes; in test [2] (intraperitoneal, 40 mg/kg), 219.2 ± 13.3 sec./5 minutes; in test [2] (oral, 10 mg/kg), 136.4 ± 4.2 sec./5 minutes; in test [2] (oral, 30 mg/kg), 140.0 ± 12.3 sec./5 minutes; in test [2] (oral, 40 mg/kg) it was 193.1 ± 8.7 sec./5 minutes. Moreover, the “Immobile posture time (sec.)/4 minutes, Treatment” value in test [3] is 5.07 sec./4 minutes.
